The values that follow come from patent US9221800B2, “Isoxazole treatments for diabetes” (The Board of Regents of the University of Texas System, priority 2011, dated 2015).

What all share (type): cell-based, mouse
One assay relates to MIN6 cells. As to the kind of experiment: Immunoblotting of MIN6 whole cell lysates. To be noted: MIN6 pretreated with inhibitors 16 h (FIG. 4A); nifedipine in combination with the chelating agent BAPTA. As to the method: FIGS. 2[…]-1) activates insulin expression and improves β cell function in MIN6 cells. (FIG. 2A) Dose-response relationship of MIN6 cells treated with 5-80 μM Isx for 24 h or DMSO (0.08%-similar to the highest concentration of Isx). Whole cell lysates (40 μg) were subjected to immunoblotting using antibodies against BETA2NeuroD1, MafA, PDX-1, pERK1/2 (pT183/[…]), acetylated histones […] and ACH3K9 and total histone H3. (FIG. 2B) Quantitative RT-PCR of murine insulin1 and insulin2 gene expression in MIN6 cells treated with Isx for 24 h as in FIG. 2A. […] (FIG. 2D) Insulin content measured by ELISA in MIN6 cells treated with Isx for 24 or 48 h. (FIG. 2E) GSIS induced by glucose, amino acids (AA) and Exendin-4 (Ex-4) singly or in combination in MIN6 cells pretreated with Isx for 48 h. FIGS. 4[…]-1) is a HAT activator. (FIG. 4A) Immunoblots of acetylated histones in MIN6 cells pretreated with the indicated inhibitors for 16 h and then treated with vehicle or Isx. (FIGS. 4B-C) HDAC (FIG. 4B) and HAT (FIG. 4C) activities in 50 μg of nuclear extract protein from MIN6 cells treated with Isx or DMSO for 24 h. Trichostatin A (TSA; 2 μM) was added at as a positive control. HeLa nuclear extract also was included as a positive control. […] Statistical analysis was performed using Student's t test as in FIGS. 1A-E. *P<0.05; **P<0.01. (FIG. 4G) Simplified view of the actions of Isx. FIG. 6. Time course of […]-1) treatment in MIN6 cells. Immunoblotting of whole cell extracts from MIN6 cells grown for 24 h in complete DMEM containing […] and treated with 20 μM Isx for from 15 min to 24 h. The control (0 min) was treated with DMSO for 24 h. MIN6 cells were cultured in DMEM (Gibco), containing 25 mM glucose, 10% fetal bovine serum, 10 mM Hepes pH 7.4, 10.2 mM L-glutamine, […] sodium pyruvate, 2.5 mM β-mercaptoethanol, 100 U/ml penicillin and 100 μg/ml streptomycin at 37° C. in 10% CO2. Human islets were obtained from the ICR Basic Science Islet Distribution and from the University of Alabama, Birmingham Islet Resource Facility and were cultured in RPMI 1640 with 11 mM glucose for up to 1 year. The medium was changed twice weekly and the islets were subcultured when they reached 90% confluence. For Isx treatments, cells were incubated in medium containing either Isx or the equivalent volume of DMSO vehicle (0.04%). To measure GSIS, cells were placed in Krebs-Ringer bicarbonate/Hepes containing 0.1% bovine serum albumin and 2 mM glucose for 2 h, and stimulated for 15 min with 20 mM glucose, a 1× amino-acid mixture (concentrations as in DMEM), or 50 nM Exendin-4.

For a further assay, the system named is HAT. As to the kind of experiment: HAT activity in nuclear extracts of treated MIN6 cells. The following applies: MIN6 cells expressing p300; 10 μM U0126. As to the method: (§1) The histone acetyl transferase and deacetylase activities were measured in 50 μg of nuclear protein using the HAT and HDAC activity colorimetric assay kits from Biovision Biotechnology according to manufacturer's recommendations.

Another assay concerns HDAC. As to the kind of experiment: HDAC activity in nuclear extracts of treated MIN6 cells. To be noted: 24 h treatment, TSA 2 μM positive control (FIG. 4B). As to the method: as §1

Regarding `N#CC(=C(/N)Sc1ccccc1N)/C(C#N)=C(\N)Sc1ccccc1N` [U0126, reference compound], in the assay with MIN6 cells, the “effect on Isx-induced acetylation of H4” value is given as “inhibited”; the “effect on acetylation of H3 on lysines 9 and 14 induced by Isx” value (“effect on acetylation of H3” below) is recorded as “little effect”. Besides, in the assay with HAT, the “effect on the Isx-induced increase in HAT activity” value is “inhibited”.
Regarding `COC[C@H]1OC(=O)c2coc3c2[C@@]1(C)C1=C(C3=O)[C@@H]2CCC(=O)[C@@]2(C)C[C@H]1OC(C)=O` [wortmannin, reference compound], in the assay on MIN6 cells, the “effect on Isx-induced acetylation of H4” value was “no effect”; the “effect on acetylation of H3” value is on record as “no effect”.
With trichostatin A [reference compound], the “HDAC activity in MIN6 cells” value in the assay with HDAC was “inhibited”.
`O=C(NOC[C@H](O)CO)c1ccc(F)c(F)c1Nc1ccc(I)cc1F` [PD325901, reference compound]: in the assay with MIN6 cells, the “effect on Isx-induced acetylation of H4” value is on record as “inhibited”; the “effect on acetylation of H3” value is on record as “little effect”.
